Results on four molecules are retold here after patent publication US10584350B2, “Structurally modified COI1” (Board of Trustees of Michigan State University, priority 2016, dated 2020).

Test [1] has as its system COI1-JAZ9 interaction. Kind of test: Quantitative liquid Y2H assays (Beta-Glo, RLU). The note with it: yeast. The class given is cell-based, Arabidopsis. As to the method:
Yeast EGY48 strain carrying the p8Op:LacZ reporter plasmid was co-transformed with pGilda:COI1 (or COI1 mutants) and pB42AD:JAZ9 (or other JAZs) (Clontech). Colonies were selected on SD minimal plates (BD Biosciences) supplemented with the—uracil (U)/-tryptophan (W)/-histidine (H) amino acid drop out solution (Clontech). Yeast colonies were cultured overnight in liquid SD-UWH medium, harvested, washed twice in sterile water, and the absorbance (OD600) of the cultures was adjusted to 0.2 in liquid SD galactose/raffinose-UWH medium (BD Biosciences).
For liquid Y2H assays, cultures were supplemented with designated concentrations of JA-Ile (10 or 30 μM), COR (1 μM), or DMSO. After 16-h incubation with ligands, the liquid cultures were processed through the Beta-Glo Assay system (Promega) for detecting the β-galactosidase activity. […] Protein expression in yeast was detected using anti-LexA antibody (1:5,000; Upstate Biotechnology) for detection of COI1 expression from pGilda vector and anti-HA (1:5,000; Roche Life Science) antibody for detection of JAZ9 expression in pB42AD vector.

Test [2] relates to root growth. Kind of test: Root growth inhibition assays. Type of test: in vivo, Arabidopsis. The note with it: for concentrations of comparable potency in inhibiting root growth: COI1A384V plants; for concentrations with equivalent effect on root growth inhibition: wild-type Col-0 plants; for sensitivity of plants to COR vs MeJA: root growth inhibition, 0.2 μM COR vs 10 μM MeJA, in vivo. The procedure:
Col-0, segregating COI1-30, transgenic COI1WT, and COI1A384V seeds were surface-sterilized, cold-stratified, and germinated on half-strength MS agar media containing MeJA, COR, or DMSO at the indicated concentrations. Seedlings were grown under long-day light conditions (16-h light at 100 μE·m^2·s, and 8-h dark) for 10-12 days before scanning images of roots. Root lengths were measured using ImageJ software (see website at rsbweb.nih.gov/ij/).

Test [3] concerns JAZ9 gene expression. Nature of the test: qPCR of JA-responsive marker gene JAZ9. The note with it: 10 μM MeJA or 0.2 μM COR, 3 h; for induction of JAZ9 expression compared with that in COI1-30 plants: COI1A384V L1 line; for JAZ9 gene expression in response to treatment compared with Col-0 or COI1WT plants: COI1A384V lines; for JAZ9 gene expression after application: Col-0 and COI1WT plants. Type of test: in vivo, Arabidopsis. The procedure: (§1) Col-0 and transgenic seeds were germinated on half-strength MS medium. Five-day-old seedlings were transferred into liquid half-strength MS medium. Segregating coil-30 seeds were germinated on half-strength MS medium with 10 μM MeJA. and MeJA-resistant 5-d-old seedlings were transferred into liquid half-strength MS medium. Next, 10 μM MeJA (Sigma), 0.2 μM COR or 0.1% DMSO were applied to 12-d-old seedlings. Samples were collected after 3 h and total RNA was extracted using Qiagen RNeasy Mini kit (Qiagen). M-MLV Reverse transcriptase (Life Technologies) and SYBR Green master mix (Life Technologies) were used for reverse-transcription and real-time PCR. Primers used were: […]

Test [4] has as its system COI1WT/A384V-JAZ9 co-receptor. Kind of test: Coreceptor pull-down assay. The note with it: plant-expressed COI1, E. coli-expressed JAZ9. The class given is binding, Arabidopsis. As to the method: Pull-down assays were performed with protein extracts from 4-mg pCOI1:COI1WT/A384V-4×c-Myc plants and 25 μg recombinant MBP-JAZ9-8×His. Assays were performed in the presence of JA-Ile or COR at various concentrations and incubated for 30 min at 4° C. in the binding buffer (Katsir et al., Proc Natl Acad Sci USA 105(19):7100-7105 (2008)). Eighty microliters of Ni resin (Invitrogen) were added, followed by an additional 15-min incubation period at 4° C. MBP-JAZ9-8×Hisbound Ni resin was washed three times on microcentrifuge spin columns with 0.25 mL binding buffer at 4° C. MBP-JAZ9-8×His was eluted from the resin with 100 μL of 300 mM imidazole. Proteins bound to MBP-JAZ9-8×His were analyzed by immunoblotting for the presence of COI1WT/A384V-4×c-Myc using anti-cMyc antibody. MBP-JAZ9-8×His recovered by the Ni affinity resin was detected by Coomassie blue staining.

Test [5] has as its system COI1-JAZ9 interaction. The note with it: Y2H; Thines et al., Melotto et al.; cited from earlier work.
Test [6] deals with Spodoptera exigua. Nature of the test: Insect feeding assays. The note with it: for average weight of larvae feeding on COI1-30 plants higher than larvae reared on these plants: S. exigua neonate larvae. The class given is in vivo. As to the method:
Insect bioassays were performed as described by Herde et al. (Methods Mol Biol 1011:51-61 (2013)). Briefly, eggs of Spodoptera exigua were obtained from Benzon Research, and four neonate Spodoptera exigua larvae were transferred to the center of each 6-wk-old Arabidopsis host plant. Plants were grown under 8-hour light (100 μE·m^2·s) and 16-h dark and covered with cup cages. Larval weights were determined after 9-12 days of feeding.

Test [7] has as its system SID2 gene expression. Nature of the test: qPCR of SA-responsive gene SID2. Type of test: in vivo, Arabidopsis. The note with it: plants expressing the protein. As to the method:
as §1
(In general: Quantitative PCR measures a nucleic acid by following its amplification.)

Test [8] deals with Pst DC3000. Kind of test: Bacterial infection assay, dip-inoculation. The note with it: 3 days after dip-inoculation. The class given is in vivo, Pseudomonas syringae pv tomato. The procedure: (§2) The Pseudomonas syringae infection assays in Arabidopsis were performed as described by Yao et al. (Methods Mol Biol 1011:63-81 (2013)). In brief, 4- to 5-wk-old (12-h light/12-h dark) Arabidopsis plants were dip-inoculated with bacterial suspension (1×10^8 cfu/mL Pst DC3000 or Psm ES4326 in 0.25 mM MgCl2 solution with 0.025% Silwet-77) or syringe-infiltrated with bacterial suspension (1×10^6 cfu/mL Pst DC3118 or DB29 in 0.25 mM MgCl2 solution). Bacterial growth was determined by serial dilutions of plant extracts 3 or 4 days after inoculation. Homozygous COI1-30 plants were selected by genotyping before bacterial infection.

The subject of test [9] is PR1 gene expression. Kind of test: qPCR of SA-responsive gene PR1. Type of test: in vivo, Arabidopsis. The note with it: plants expressing the protein. As to the method: as §1
Test [10] has as its system Psm ES4326. Kind of test: Bacterial infection assay, dip-inoculation. The class given is in vivo, Pseudomonas syringae pv maculicola. The note with it: 3 days after dip-inoculation. The procedure: as §2

Entries after “also recorded” stand apart in the source; their conditions may differ.

For the molecule `CC[C@H]1C=C(C(=O)N[C@@]2(C(=O)O)C[C@H]2CC)[C@H]2CCC(=O)[C@H]2C1` [COR, coronatine], the “concentrations equivalent in promoting the COI1-JAZ9 interaction” value in test [1] (JA-Ile is a mixture of active and inactive isomers, COR pure) was determined as 0.1 µM. Besides, the “less effective in COI A384V than in Col-0 and COI1WT (root growth inhibition)” value in test [2] (0.2 μM COR) is “about 100 fold”. For the same molecule, in test [2], the “concentrations of comparable potency in inhibiting root growth” value came out at 200 nM and the “concentrations with equivalent effect on root growth inhibition” value turned out to be 0.2 µM. Also, in test [3], the “induction of JAZ9 expression compared with that in COI1-30 plants” value was “eight-fold”, the “JAZ9 gene expression in response to treatment compared with Col-0 or COI1WT plants” value is “significantly reduced” and the “JAZ9 gene expression after application” value is given as “induced”. Further, the “higher concentration required for robust formation of the COI1A384V-JAZ9 co-receptor than for the COI1WT-JAZ9 co-receptor” value in test [4] was around 100 fold.

Regarding `CC/C=C\CC1C(=O)CCC1CC(=O)OC` (stereo not drawn) [MeJA, methyl jasmonate], in [2], the “concentrations of comparable potency in inhibiting root growth” value was 100 nM and the “concentrations with equivalent effect on root growth inhibition” value came to 10 µM. Also, in test [3], the “induction of JAZ9 expression compared with that in COI1-30 plants” value is 38 fold, the “JAZ9 gene expression in response to treatment compared with Col-0 or COI1WT plants” value is “less affected” and the “JAZ9 gene expression after application” value is “induced”. In addition, the activity in yeast entry in test [5] is given as “not active”.

As to “COI1WT: wild type COI1 (SEQ ID NO:1) expressed in COI1-30-null background; control transgenic lines”, the “weight of larvae compared with Col-0” value in test [6] (12-day-old larvae, one-way ANOVA with Dunnett test) is “No significant difference”. In [6], the “average weight of larvae feeding on COI1-30 plants higher than larvae reared on these plants” value is “six-fold”. In test [7], the “expression of SID2 gene” value is given as “similarly low”. The “resistance / susceptibility to Pst DC3000 (bacterial growth and disease symptoms)” value in [8] is recorded as “highly susceptible”. The “expression of PR1 gene” value in test [9] is listed as “similarly low”.

B1: COI1A384V: modified Arabidopsis thaliana COI1 protein with valine at position 384 (SEQ ID NO:2); also names transgenic plants expressing it (protein, listed as Arabidopsis thaliana)
chain: MEDPDIKRCKLSCVATVDDVIEQVMTYITDPKDRDSASLVCRRWFKIDSETREHVTMALCYTATPDRLSRRFPNLRSLKLKGKPRAAMFNLIPENWGGYVTPWVTEISNNLRQLKSVHFRRMIVSDLDLDRLAKARADDLETLKLDKCSGFTTDGLLSIVTHCRKIKTLLMEESSFSEKDGKWLHELAQHNTSLEVLNFYMTEFAKISPKDLETIARNCRSLVSVKVGDFEILELVGFFKAAANLEEFCGGSLNEDIGMPEKYMNLVFPRKLCRLGLSYMGPNEMPILFPFAAQIRKLDLLYALLETEDHCTLIQKCPNLEVLETRNVIGDRGLEVLAQYCKQLKRLRIERGADEQGMEDEEGLVSQRGLIALAQGCQELEYMVVYVSDITNESLESIGTYLKNLCDFRLVLLDREERITDLPLDNGVRSLLIGCKKLRRFAFYLRQGGLTDLGLSYIGQYSPNVRWMLLGYVGESDEGLMEFSRGCPNLQKLEMRGCCFSERAIAAAVTKLPSLRYLWVQGYRASMTGQDLMQMARPYWNIELIPSRRVPEVNQQGEIREMEHPAHILAYYSLAGQRTDCPTTVRVLKEPI
For B1, the “COR-dependent COI1-JAZ9 interaction” value in test [1] (liquid Y2H, 1 μM COR) is reported as “greatly reduced”. In addition, in test [1] (liquid Y2H, 10 or 30 μM JA-Ile), the “JA-Ile-dependent COI1-JAZ9 interaction” value was “less effect”. Besides, in [1] (liquid Y2H), the “differential effect on JA-Ile-dependent vs COR-dependent COI1-JAZ9 interaction” value is on record as “preferably affects COR-dependent COI1-JAZ9 interaction”. Further, in [6], the “average weight of larvae feeding on COI1-30 plants higher than larvae reared on these plants” value is given as “five-fold”. Moreover, in [6] (in vivo), the “level of defense against S. exigua” value was “almost wild-type levels”. The “sensitivity of plants to COR vs MeJA” value in test [2] is “significantly less sensitive; also recorded: differentially sensitive”; in test [2] (listed as COI A384V), “more sensitive”. For the same molecule, in test [10], the “resistance to Psm ES4326 compared with Col-0 or COI1WT plants” value is given as “significantly increased resistance”. Moreover, the “expression of SID2 gene” value in test [7] is “similarly low”. In test [8], the “resistance / susceptibility to Pst DC3000 (bacterial growth and disease symptoms)” value is “significantly increased resistance”. In test [9], the “expression of PR1 gene” value is “similarly low”.
